{"source": "PubChem BioAssay (NCI)", "test_in_all_cases": "NCI anticancer screen, dose series, 48 h", "key": {"[1]": {"system": "NCI-H226 lung"}, "[2]": {"system": "A498 renal"}, "[3]": {"system": "RXF 393 renal"}, "[4]": {"system": "LXFL 529 NSCLC"}, "[5]": {"system": "K-562 leukemia"}, "[6]": {"system": "DMS 114 small cell lung"}, "[7]": {"system": "RPMI-8226 leukemia"}, "[8]": {"system": "MOLT-4 leukemia"}, "[9]": {"system": "NCI-H23 lung"}, "[10]": {"system": "HCT-15 colon"}, "[11]": {"system": "HL-60(TB) leukemia"}, "[12]": {"system": "ACHN renal"}, "[13]": {"system": "UO-31 renal"}, "[14]": {"system": "IGROV1 ovarian"}, "[15]": {"system": "KM20L2 colon"}, "[16]": {"system": "A549 NSCLC"}, "[17]": {"system": "SK-MEL-5 melanoma"}, "[18]": {"system": "HT29 colon"}, "[19]": {"system": "M14 melanoma"}, "[20]": {"system": "SNB-75 CNS"}, "[21]": {"system": "COLO 205 colon"}, "[22]": {"system": "OVCAR-8 ovarian"}, "[23]": {"system": "HCT-116 colon"}, "[24]": {"system": "SK-OV-3 ovarian"}, "[25]": {"system": "CAKI-1 renal"}, "[26]": {"system": "SW-620 colon"}, "[27]": {"system": "RXF-631 renal"}, "[28]": {"system": "NCI-H522 lung"}, "[29]": {"system": "UACC-62 melanoma"}, "[30]": {"system": "OVCAR-3 ovarian"}, "[31]": {"system": "MALME-3M melanoma"}, "[32]": {"system": "HOP-62 NSCLC"}, "[33]": {"system": "OVCAR-4 ovarian"}, "[34]": {"system": "SNB-78 CNS"}, "[35]": {"system": "SK-MEL-2 melanoma"}, "[36]": {"system": "KM12 colon"}, "[37]": {"system": "SNB-19 CNS"}, "[38]": {"system": "HOP-18 NSCLC"}, "[39]": {"system": "HCC-2998 colon"}, "[40]": {"system": "U251 CNS"}, "[41]": {"system": "XF 498 CNS"}, "[42]": {"system": "UACC-257 melanoma"}, "[43]": {"system": "DMS 273 small cell lung"}, "[44]": {"system": "NCI-H460 lung"}, "[45]": {"system": "786-0 renal"}, "[46]": {"system": "M19-MEL melanoma"}, "[47]": {"system": "SF-539 CNS"}, "[48]": {"system": "CCRF-CEM leukemia"}, "[49]": {"system": "OVCAR-5 ovarian"}, "[50]": {"system": "SF-268 CNS"}, "[51]": {"system": "TK-10 renal"}, "[52]": {"system": "SN12C renal"}, "[53]": {"system": "SF-295 CNS"}, "[54]": {"system": "DLD-1 colon"}, "[55]": {"system": "SK-MEL-28 melanoma"}, "[56]": {"system": "EKVX NSCLC"}, "[57]": {"system": "HOP-92 NSCLC"}, "[58]": {"system": "SR leukemia"}, "[59]": {"system": "LOX IMVI melanoma"}}, "note": "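Tested at 5 concentrations; 48 h exposure; 96-well plates; endpoints linearly interpolated, else capped at highest concentration. Definition used: TGI = concentration required for complete inhibition of growth.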"}
{"smiles": "COC(=O)C1=CC2OC13CC1CCC3(C2=O)C1(C)C", "note": "(stereo not drawn)", "values": [{"measurement": "TGI", "setting": "[1]", "result": 34.2, "unit": "µM"}, {"measurement": "TGI", "setting": "[2]", "result": 49, "unit": "µM"}, {"measurement": "TGI", "setting": "[3]", "result": 25.8, "unit": "µM"}, {"measurement": "TGI", "setting": "[4]", "result": 16.7, "unit": "µM"}, {"measurement": "TGI", "setting": "[5]", "result": 56.4, "unit": "µM"}, {"measurement": "TGI", "setting": "[6]", "result": 20.3, "unit": "µM"}, {"measurement": "TGI", "setting": "[7]", "result": 38.6, "unit": "µM"}, {"measurement": "TGI", "setting": "[8]", "result": 33.7, "unit": "µM"}, {"measurement": "TGI", "setting": "[9]", "result": 32.1, "unit": "µM"}, {"measurement": "TGI", "setting": "[10]", "result": 18.9, "unit": "µM"}, {"measurement": "TGI", "setting": "[11]", "result": 23.1, "unit": "µM"}, {"measurement": "TGI", "setting": "[12]", "result": 21.2, "unit": "µM"}, {"measurement": "TGI", "setting": "[13]", "result": 19.1, "unit": "µM"}, {"measurement": "TGI", "setting": "[14]", "result": 39.9, "unit": "µM"}, {"measurement": "TGI", "setting": "[15]", "result": 27.1, "unit": "µM"}, {"measurement": "TGI", "setting": "[16]", "result": 92.7, "unit": "µM"}, {"measurement": "TGI", "setting": "[17]", "result": 30.7, "unit": "µM"}, {"measurement": "TGI", "setting": "[18]", "result": 27.7, "unit": "µM"}, {"measurement": "TGI", "setting": "[19]", "result": 28.3, "unit": "µM"}, {"measurement": "TGI", "setting": "[20]", "result": 19.9, "unit": "µM"}, {"measurement": "TGI", "setting": "[21]", "result": 29.8, "unit": "µM"}, {"measurement": "TGI", "setting": "[22]", "result": 23.8, "unit": "µM"}, {"measurement": "TGI", "setting": "[23]", "result": 23.5, "unit": "µM"}, {"measurement": "TGI", "setting": "[24]", "result": 38.1, "unit": "µM"}, {"measurement": "TGI", "setting": "[25]", "result": 7.37, "unit": "µM"}, {"measurement": "TGI", "setting": "[26]", "result": 19.4, "unit": "µM"}, {"measurement": "TGI", "setting": "[27]", "result": 28, "unit": "µM"}, {"measurement": "TGI", "setting": "[28]", "result": 9.37, "unit": "µM"}, {"measurement": "TGI", "setting": "[29]", "result": 30.6, "unit": "µM"}, {"measurement": "TGI", "setting": "[30]", "result": 20, "unit": "µM"}, {"measurement": "TGI", "setting": "[31]", "result": 28.5, "unit": "µM"}, {"measurement": "TGI", "setting": "[32]", "result": 48.1, "unit": "µM"}, {"measurement": "TGI", "setting": "[33]", "result": 23.3, "unit": "µM"}, {"measurement": "TGI", "setting": "[34]", "result": 36.5, "unit": "µM"}, {"measurement": "TGI", "setting": "[35]", "result": 28.7, "unit": "µM"}, {"measurement": "TGI", "setting": "[36]", "result": 30.6, "unit": "µM"}, {"measurement": "TGI", "setting": "[37]", "result": 52.3, "unit": "µM"}, {"measurement": "TGI", "setting": "[38]", "result": 24, "unit": "µM"}, {"measurement": "TGI", "setting": "[39]", "result": 27.8, "unit": "µM"}, {"measurement": "TGI", "setting": "[40]", "result": 25.6, "unit": "µM"}, {"measurement": "TGI", "setting": "[41]", "result": 13.4, "unit": "µM"}, {"measurement": "TGI", "setting": "[42]", "result": 24.1, "unit": "µM"}, {"measurement": "TGI", "setting": "[43]", "result": 24.6, "unit": "µM"}, {"measurement": "TGI", "setting": "[44]", "result": "> 100", "unit": "µM"}, {"measurement": "TGI", "setting": "[45]", "result": 30.7, "unit": "µM"}, {"measurement": "TGI", "setting": "[46]", "result": 24.5, "unit": "µM"}, {"measurement": "TGI", "setting": "[47]", "result": 27.3, "unit": "µM"}, {"measurement": "TGI", "setting": "[48]", "result": 14.6, "unit": "µM"}, {"measurement": "TGI", "setting": "[49]", "result": 33.2, "unit": "µM"}, {"measurement": "TGI", "setting": "[50]", "result": 23.2, "unit": "µM"}, {"measurement": "TGI", "setting": "[51]", "result": 22.6, "unit": "µM"}, {"measurement": "TGI", "setting": "[52]", "result": 26.4, "unit": "µM"}, {"measurement": "TGI", "setting": "[53]", "result": 40.5, "unit": "µM"}]}
{"smiles": "CCCCCCCCCCCCNC1(C)CNCCCNCCNCCCNC1", "values": [{"measurement": "TGI", "setting": "[1]", "result": 3.21, "unit": "µM"}, {"measurement": "TGI", "setting": "[54]", "result": 3.07, "unit": "µM"}, {"measurement": "TGI", "setting": "[3]", "result": 2.93, "unit": "µM"}, {"measurement": "TGI", "setting": "[55]", "result": 3.29, "unit": "µM"}, {"measurement": "TGI", "setting": "[4]", "result": 3.05, "unit": "µM"}, {"measurement": "TGI", "setting": "[7]", "result": 3.55, "unit": "µM"}, {"measurement": "TGI", "setting": "[8]", "result": 3.05, "unit": "µM"}, {"measurement": "TGI", "setting": "[9]", "result": 3.12, "unit": "µM"}, {"measurement": "TGI", "setting": "[12]", "result": 3.41, "unit": "µM"}, {"measurement": "TGI", "setting": "[13]", "result": 5.83, "unit": "µM"}, {"measurement": "TGI", "setting": "[14]", "result": 2.35, "unit": "µM"}, {"measurement": "TGI", "setting": "[15]", "result": 3.1, "unit": "µM"}, {"measurement": "TGI", "setting": "[16]", "result": 3.2, "unit": "µM"}, {"measurement": "TGI", "setting": "[17]", "result": 3.06, "unit": "µM"}, {"measurement": "TGI", "setting": "[56]", "result": 12.8, "unit": "µM"}, {"measurement": "TGI", "setting": "[57]", "result": 4.55, "unit": "µM"}, {"measurement": "TGI", "setting": "[18]", "result": 2.95, "unit": "µM"}, {"measurement": "TGI", "setting": "[19]", "result": 3.21, "unit": "µM"}, {"measurement": "TGI", "setting": "[20]", "result": 3.15, "unit": "µM"}, {"measurement": "TGI", "setting": "[21]", "result": 3.2, "unit": "µM"}, {"measurement": "TGI", "setting": "[22]", "result": 2.92, "unit": "µM"}, {"measurement": "TGI", "setting": "[23]", "result": 2.59, "unit": "µM"}, {"measurement": "TGI", "setting": "[24]", "result": 3.21, "unit": "µM"}, {"measurement": "TGI", "setting": "[58]", "result": 3.58, "unit": "µM"}, {"measurement": "TGI", "setting": "[25]", "result": 3.63, "unit": "µM"}, {"measurement": "TGI", "setting": "[26]", "result": 3.27, "unit": "µM"}, {"measurement": "TGI", "setting": "[27]", "result": 3.57, "unit": "µM"}, {"measurement": "TGI", "setting": "[28]", "result": 3.22, "unit": "µM"}, {"measurement": "TGI", "setting": "[29]", "result": 3.25, "unit": "µM"}, {"measurement": "TGI", "setting": "[30]", "result": 3.28, "unit": "µM"}, {"measurement": "TGI", "setting": "[31]", "result": 3.47, "unit": "µM"}, {"measurement": "TGI", "setting": "[32]", "result": 3.83, "unit": "µM"}, {"measurement": "TGI", "setting": "[59]", "result": 3.25, "unit": "µM"}, {"measurement": "TGI", "setting": "[33]", "result": 3.82, "unit": "µM"}, {"measurement": "TGI", "setting": "[35]", "result": 3.34, "unit": "µM"}, {"measurement": "TGI", "setting": "[36]", "result": 2.89, "unit": "µM"}, {"measurement": "TGI", "setting": "[38]", "result": 3.07, "unit": "µM"}, {"measurement": "TGI", "setting": "[39]", "result": 3.22, "unit": "µM"}, {"measurement": "TGI", "setting": "[40]", "result": 2.3, "unit": "µM"}, {"measurement": "TGI", "setting": "[41]", "result": 3.35, "unit": "µM"}, {"measurement": "TGI", "setting": "[42]", "result": 3.19, "unit": "µM"}, {"measurement": "TGI", "setting": "[43]", "result": 1.6, "unit": "µM"}, {"measurement": "TGI", "setting": "[44]", "result": 2.69, "unit": "µM"}, {"measurement": "TGI", "setting": "[45]", "result": 3.14, "unit": "µM"}, {"measurement": "TGI", "setting": "[46]", "result": 3.13, "unit": "µM"}, {"measurement": "TGI", "setting": "[47]", "result": 3.29, "unit": "µM"}, {"measurement": "TGI", "setting": "[49]", "result": 4.54, "unit": "µM"}, {"measurement": "TGI", "setting": "[51]", "result": 3.1, "unit": "µM"}, {"measurement": "TGI", "setting": "[52]", "result": 3.05, "unit": "µM"}, {"measurement": "TGI", "setting": "[53]", "result": 2.88, "unit": "µM"}]}
